Here are results for eight compounds from EP0761672A1, “Cephalosporin containing in position 7 a substituted benzyloxyimino radical, processes for their preparation and intermediates for their preparation, their use as medicaments” (ROUSSEL UCLAF, priority 1995, dated 1997).

Common to all, as to assay: In vitro activity, dilution method in solid medium (MIC)
Common to all, as to type: cell-based

In experiment [1] the test system is Enterobactéries Céfotaxime résistantes. Conditions: 24 h, read-out: concentrations minimales inhibitrices (CMI), moyennes géométriques. The protocol: (§1) Activité in vitro, méthode des dilutions en milieu solide.
(§2) On prépare une série de boîtes dans lesquelles on répartit une même quantité de milieu nutritif stérile, contenant des quantités croissantes du produit à étudier puis chaque boîte est ensemencée avec plusieurs souches bactériennes.
(§3) Après incubation de 24 heures en étuve à 37°C, l'inhibition de la croissance est appréciée par l'absence de tout développement bactérien ce qui permet de déterminer les concentrations minimales inhibitrices (CMI) exprimées en microgrammes/cm^3.
(§4) Les résultats sont exprimés sous forme de moyennes géométriques de toutes les CMI obtenues, pour un groupe de souches particulier.

For experiment [2], the system named is Staphylocoques Pénicilline résistants. Conditions: Staphylocoques Pénicilline résistants (22 souches); geometric mean of all MICs of the strain group; 24 h incubation at 37°C; read-out: concentrations minimales inhibitrices (CMI), moyennes géométriques. Here is the method:
as §1, §2, §3, §4

The next experiment deals with Pseudomonas aeruginosa. Conditions: Pseudomonas aeruginosa (23 souches); geometric mean of all MICs of the strain group; 24 h incubation at 37°C; read-out: concentrations minimales inhibitrices (CMI), moyennes géométriques. Here is the method: as §1, §2, §3, §4

In brackets after ≈: the same amount, converted by molar mass.

With `Nc1nc(/C(=N/OCc2cc(Cl)c(O)c(O)c2Cl)C(=O)N[C@@H]2C(=O)N3C(C(=O)[O-])=C(/C=C/C[n+]4cccc5ccccc54)CS[C@H]23)cs1` [Exemple 1], the MIC in experiment [1] is 0.11 µg/mL (≈ 0.151 µM); in experiment [2], 0.78 µg/mL (≈ 1.07 µM).

As to `COC(=O)C(O/N=C(\C(=O)N[C@@H]1C(=O)N2C(C(=O)[O-])=C(/C=C/C[n+]3cccc4ccccc43)CS[C@H]12)c1csc(N)n1)c1cc(O)c(O)c(F)c1` (stereo partly drawn) [Exemple 8], the MIC amounted to 0.49 µg/mL (≈ 0.667 µM) in the experiment on Pseudomonas aeruginosa and 0.3 µg/mL (≈ 0.408 µM) in experiment [2].

Consider `Nc1nc(/C(=N/OCc2cc(O)c(O)c(F)c2)C(=O)N[C@@H]2C(=O)N3C(C(=O)[O-])=C(/C=C/C[n+]4cccc5ccccc54)CS[C@H]23)cs1` [Exemple 7], for which the MIC is 0.2 µg/mL (≈ 0.296 µM) in experiment [1], 0.47 µg/mL (≈ 0.695 µM) in the experiment on Pseudomonas aeruginosa and 0.3 µg/mL (≈ 0.443 µM) in experiment [2].

Regarding `Nc1nc(/C(=N/OCc2cc(F)c(O)c(O)c2F)C(=O)N[C@@H]2C(=O)N3C(C(=O)[O-])=C(/C=C/C[n+]4cccc5c4CCC5)CS[C@H]23)cs1` [Exemple 6], the MIC in experiment [1] was determined as 0.36 µg/mL (≈ 0.526 µM); in the experiment on Pseudomonas aeruginosa it was 1.12 µg/mL (≈ 1.64 µM); in experiment [2], 0.63 µg/mL (≈ 0.92 µM).

For the compound `Nc1nc(/C(=N/OCc2cc(F)c(O)c(O)c2F)C(=O)N[C@@H]2C(=O)N3C(C(=O)[O-])=C(/C=C/C[n+]4cccc5ccccc54)CS[C@H]23)cs1` [Exemple 4], the MIC in experiment [1] came to 0.38 µg/mL (≈ 0.547 µM); in the experiment with Pseudomonas aeruginosa, 0.14 µg/mL (≈ 0.202 µM); in experiment [2], 0.37 µg/mL (≈ 0.533 µM).

Take `Nc1nc(/C(=N/OCc2cc(Cl)c(O)c(O)c2Cl)C(=O)N[C@@H]2C(=O)N3C(C(=O)[O-])=C(/C=C/C[n+]4ccn5ccccc54)CS[C@H]23)cs1` [Exemple 2]: the MIC in experiment [1] was 0.19 µg/mL (≈ 0.265 µM); in the experiment with Pseudomonas aeruginosa, 0.42 µg/mL (≈ 0.586 µM); in experiment [2], 0.91 µg/mL (≈ 1.27 µM).

Consider `Nc1nc(/C(=N/OCc2cc(F)c(O)c(O)c2F)C(=O)N[C@@H]2C(=O)N3C(C(=O)[O-])=C(/C=C/C[n+]4ccn5ccccc54)CS[C@H]23)cs1` [Exemple 5], for which the MIC turned out to be 0.26 µg/mL (≈ 0.38 µM) in experiment [1] and 0.55 µg/mL (≈ 0.804 µM) in experiment [2].

In the case of `Nc1nc(/C(=N/OCc2cc(Cl)c(O)c(O)c2Cl)C(=O)N[C@@H]2C(=O)N3C(C(=O)[O-])=C(/C=C/C[n+]4cccc5c4CCC5)CS[C@H]23)cs1` [Exemple 3], the figures for the MIC (in experiment [1]; with Pseudomonas aeruginosa; in experiment [2]) were 0.13 µg/mL (≈ 0.181 µM), 0.26 µg/mL (≈ 0.362 µM) and 1.37 µg/mL (≈ 1.91 µM), respectively.
